According to ChEMBL document CHEMBL1201862, “PubChem BioAssay data set” (2004):
The source made the active and inactive calls.

Legend:
[1] = inhibitors of firefly luciferase expression or activity, dose response, H4 neuroglioma cells, luminescence (AID 1990); format: functional, cell-based
[2] = Luminescence Cell-Based Dose Response HTS to Identify Inhibitors of 5'UTR Stem-Loop Driven Prion Protein mRNA Translation in H4 Neuroglioblastoma Cells. [Related pubchem assays: 1827 (Project Summary), 1813 (Primary HTS)]; format: functional
[3] = inhibitors of SNCA 5'UTR-driven reporter translation, confirmation, H4 neuroglioma cells, luminescence (AID 1988); format: functional, cell-based
[4] = biological target: T1, Mannose-6-phosphate isomerase (Homo sapiens, UniProt P34949); experiment: human PMI inhibitors, high substrate, primary screen, biochemical, fluorescence intensity, high mannose 6-phosphate (AID 1220)
T1 sequence (P34949 whole entry): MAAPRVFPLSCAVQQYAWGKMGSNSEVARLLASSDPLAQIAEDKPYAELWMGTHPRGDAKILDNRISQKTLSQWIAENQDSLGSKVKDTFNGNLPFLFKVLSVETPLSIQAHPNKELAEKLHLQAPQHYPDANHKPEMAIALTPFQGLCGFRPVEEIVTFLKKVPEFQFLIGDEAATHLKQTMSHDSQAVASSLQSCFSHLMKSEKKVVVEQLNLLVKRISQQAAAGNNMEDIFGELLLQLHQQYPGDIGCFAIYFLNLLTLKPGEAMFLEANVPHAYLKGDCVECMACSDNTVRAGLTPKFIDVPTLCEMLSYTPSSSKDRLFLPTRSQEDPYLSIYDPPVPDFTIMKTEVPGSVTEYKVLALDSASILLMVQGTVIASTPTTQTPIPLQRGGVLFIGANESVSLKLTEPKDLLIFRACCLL

Kallikrein-7 = Kallikrein-7 (Homo sapiens, UniProt P49862); experiment: Fluorescence Intensity-based biochemical primary high throughput dose response assay to identify activators of kallikrein-7 (K7) zymogen.
[5] = P. falciparum Dd2 growth inhibitors, dose response, SYBR Green, cherry-picked samples (AID 1159567); format: functional, cell-based
cells [6] = format: functional, cell-based
cells [7] = format: functional, cell-based; remark: listed apart in the source
[8] = A549 cell cytotoxicity, dose response, cytotoxicity control, plate reader, cherry-pick, antagonist series (AID 743412); format: functional, cell-based
[9] = HepG2 cell cytotoxicity, dose response, cytotoxicity control, plate reader, cherry-pick, antagonist series (AID 743416); format: functional, cell-based
[10] = LGR2 antagonists, dose response, cell-based, HEK293, CRE-luciferase reporter, cherry pick, set 2 (AID 743343); format: functional;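 note: transfected cells were stimulated with diluted bursicon conditioned medium after compound addition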
[11] = MC4R antagonists, dose response, counter-screen for LGR2 antagonist project, cell-based, plate reader, cherry pick (AID 743444); format: functional;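 note: transfected HEK 293 cells stimulated with alpha-MSH peptide; potency of inhibitors of the alpha-MSH evoked signal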
[12] = HEK293 cell cytotoxicity, dose response, cytotoxicity control, plate reader, cherry-picked samples (AID 743446); format: functional, cell-based
Galanin receptor type 3 = biological target: T2, Galanin receptor type 3 (Homo sapiens, UniProt O60755); experiment: Fluorescence-based cell-based primary high throughput dose response assay to identify antagonists of the Galanin Receptor 3 (GalR3).; format: functional
T2 sequence (O60755 whole entry): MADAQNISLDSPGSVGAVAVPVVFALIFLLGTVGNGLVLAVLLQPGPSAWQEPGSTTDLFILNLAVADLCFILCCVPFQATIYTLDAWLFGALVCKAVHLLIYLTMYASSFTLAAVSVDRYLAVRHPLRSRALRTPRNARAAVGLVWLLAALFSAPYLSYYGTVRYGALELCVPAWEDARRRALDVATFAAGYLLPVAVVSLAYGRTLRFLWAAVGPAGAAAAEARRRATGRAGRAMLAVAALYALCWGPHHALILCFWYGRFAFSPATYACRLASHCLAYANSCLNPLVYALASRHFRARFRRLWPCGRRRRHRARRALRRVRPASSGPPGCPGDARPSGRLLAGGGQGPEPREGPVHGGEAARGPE

cells [13] = format: functional, cell-based; conditions: HEK-CNG
[14] = biological target: T3, COUP transcription factor 2 (Homo sapiens, UniProt P24468); experiment: Luminescence-based cell-based high throughput dose response assay to identify inhibitors of COUP-TFII (NR2F2).; format: functional;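 note: HEK293 cells transiently cotransfected with COUP-TFII expression vector and reporter; luciferase reporter luminescence driven by COUP-TFII from the pX2-168 reporter plasmid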
T3 sequence (P24468 whole entry): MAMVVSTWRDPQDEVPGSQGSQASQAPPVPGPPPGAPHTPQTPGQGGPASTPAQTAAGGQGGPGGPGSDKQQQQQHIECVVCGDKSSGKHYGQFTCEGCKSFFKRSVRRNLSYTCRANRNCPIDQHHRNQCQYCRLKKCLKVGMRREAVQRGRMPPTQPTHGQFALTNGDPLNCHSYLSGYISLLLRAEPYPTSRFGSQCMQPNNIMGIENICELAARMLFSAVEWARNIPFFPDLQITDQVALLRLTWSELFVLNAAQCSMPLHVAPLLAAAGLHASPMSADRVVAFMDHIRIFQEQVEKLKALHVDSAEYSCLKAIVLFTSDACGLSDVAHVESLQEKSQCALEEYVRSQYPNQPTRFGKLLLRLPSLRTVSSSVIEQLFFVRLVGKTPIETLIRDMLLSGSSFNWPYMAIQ

Caspase-6 = biological target: T4, Caspase-6 (Homo sapiens, UniProt P55212); experiment: human caspase-6 inhibitors, dose response, biochemical, VEID-R110 fluorescence, cherry-pick (AID 720632)
T4 sequence (P55212 whole entry): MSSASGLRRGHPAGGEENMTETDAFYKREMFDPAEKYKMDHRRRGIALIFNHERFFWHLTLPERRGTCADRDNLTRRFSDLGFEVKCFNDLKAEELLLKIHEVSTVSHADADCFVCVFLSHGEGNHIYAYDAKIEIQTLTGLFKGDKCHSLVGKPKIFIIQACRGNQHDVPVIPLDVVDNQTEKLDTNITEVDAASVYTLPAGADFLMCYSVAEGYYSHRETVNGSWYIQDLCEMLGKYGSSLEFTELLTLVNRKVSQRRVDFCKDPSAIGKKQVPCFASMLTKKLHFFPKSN

[15] = inhibitors of intracellular T. cruzi replication, confirmation, NIH3T3 host cells, beta-gal luminescence (AID 2044); format: functional, cell-based;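 note: intracellular parasites grown in NIH/3T3 mouse fibroblasts as host cells; luminescent beta-galactosidase reporter signal from transgenic T. cruzi replicating inside host cells; inhibitors lower the luminescence signal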
[16] = cytotoxicity toward NIH3T3 fibroblasts, dose response, counter-screen, cell-based, ATP luminescence, mouse fibroblasts (AID 2010); format: functional;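 note: cells exposed to compound for about 90 hours before reading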
[17] = cytotoxicity in HEK-293T cells, dose response, cytotoxicity control for BCR NF-kB inhibitor project, luminescence, B-cell screen hits (AID 489021); format: functional, cell-based;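 note: HEK-293T cells carrying an NF-kB luciferase reporter; cells exposed to compound for about 14 hours before viability readout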
[18] = biological target: Heat shock protein HSP 90-alpha (Homo sapiens, UniProt P07900); experiment: Luminescence-based dose response biochemical high throughput screening assay for inhibitors of the Heat Shock Protein 90 (HSP90). [Related pubchem assays: 1831 (Summary AID.), 1846 (Confirmation screen.), 1789 (Primary screen.)]
Paired box protein Pax-8 = Paired box protein Pax-8 (Homo sapiens, UniProt Q06710); experiment: inhibitors of PAX8-driven TPO luciferase reporter, dose response, RMG-I cells, cherry-pick (AID 687027); format: functional, cell-based;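 note: luciferase reporter driven by Pax8 target thyroperoxidase promoter measured by SteadyGlo luminescence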
[19] = non-specific cell cytotoxicity, dose response, cytotoxicity control for PAX8 inhibitor project, plate reader, dry powder samples (AID 743021); format: functional, cell-based

Sequence of Kallikrein-7 (P49862 whole entry): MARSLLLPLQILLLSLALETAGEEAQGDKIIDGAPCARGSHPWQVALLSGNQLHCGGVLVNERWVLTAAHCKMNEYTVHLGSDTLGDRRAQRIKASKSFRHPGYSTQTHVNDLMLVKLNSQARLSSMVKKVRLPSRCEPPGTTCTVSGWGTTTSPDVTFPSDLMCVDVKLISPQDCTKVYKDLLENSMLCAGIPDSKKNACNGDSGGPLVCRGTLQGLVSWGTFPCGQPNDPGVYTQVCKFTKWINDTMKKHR
Sequence of Paired box protein Pax-8 (Q06710 whole entry): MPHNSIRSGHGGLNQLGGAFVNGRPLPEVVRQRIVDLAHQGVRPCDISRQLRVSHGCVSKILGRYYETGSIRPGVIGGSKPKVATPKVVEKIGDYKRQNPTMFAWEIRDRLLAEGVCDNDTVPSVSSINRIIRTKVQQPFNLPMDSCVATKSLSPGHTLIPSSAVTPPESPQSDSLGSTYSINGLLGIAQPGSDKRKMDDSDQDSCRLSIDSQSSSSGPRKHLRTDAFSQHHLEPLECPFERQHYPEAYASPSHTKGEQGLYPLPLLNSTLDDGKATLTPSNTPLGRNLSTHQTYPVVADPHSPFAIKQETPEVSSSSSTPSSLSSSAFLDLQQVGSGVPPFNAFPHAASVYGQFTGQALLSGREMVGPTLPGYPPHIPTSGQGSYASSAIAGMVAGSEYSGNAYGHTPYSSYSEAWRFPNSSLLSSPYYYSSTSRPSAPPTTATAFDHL

C=CCNc1nc(NCc2ccccc2)c(C#N)c2c1CN(C)CC2
EC50 [1]: > 120 µM (not active)
EC50 [2]: > 120 µM (not active)
EC50 [3]: > 120 µM (not active)
IC50 [4]: > 50 µM (not active)
EC50 (Kallikrein-7): 13.1 µM (inactive)

COc1ccc2c3c(n(C)c2c1)[C@@H](CO)N(Cc1ccccc1)CC31CCN(S(=O)(=O)c2ccc(C)cc2)CC1
AC50 [5]: 6.1 µM (active)

CN(c1cccc(Cl)c1)S(=O)(=O)c1cccc(C(=O)Nc2nc3ccccc3[nH]2)c1
EC50 (cells [6]): > 350 µM (not active)
EC50 (cells [7]): 27.2 µM (active)
AC50 [8]: 14 µM (active)
AC50 [9]: 22.1 µM (active)
AC50 [10]: 24.5 µM (active)
AC50 [11]: 19.6 µM (active)
AC50 [12]: 21.1 µM (active)

Cc1cccc(Cl)c1NC(=O)N1CCCN(c2nc3ccc(Cl)cc3s2)CC1
IC50 (Galanin receptor type 3): 2.06 µM (active)
EC50 (cells [13]): > 29.9 µM (inactive)
IC50 [14]: 11.3 µM (inactive)

O=C(O)c1ccc([N+](=O)[O-])c([N+](=O)[O-])c1
AC50 (Caspase-6): 12.3 µM (active)

COc1ccc(/C=N/OCC(=O)NC(c2ccccc2)c2ccccc2)cc1OC
EC50 [15]: 0.56 µM (active)
EC50 [16]: > 60 µM (not active)
IC50 [17]: > 80 µM (inactive)
IC50 (Galanin receptor type 3): 1.23 µM (active)
EC50 (cells [13]): > 29.9 µM (inactive)
IC50 [14]: 5.09 µM (active)

O=C(OCc1ccccn1)c1ccc(COc2ccc3ccccc3c2)o1
IC50 [18]: 2.61 µM (active)

C[C@@H]1CCCCO[C@H](CN(C)C(=O)NC2CCCCC2)[C@H](C)CN([C@@H](C)CO)C(=O)c2cc(NS(=O)(=O)c3ccc(Cl)cc3)ccc2O1
AC50 (Paired box protein Pax-8): 10.5 µM (active)
AC50 [19]: 52.5 µM (active)

COc1ccccc1NC(=O)C(=N\O)/C(C)=N/O
AC50 (Caspase-6): 11.2 µM (active)

CCN(CC)S(=O)(=O)c1cccc(-c2cn3cccnc3n2)c1
EC50 (Kallikrein-7): > 69.5 µM (inactive)

N=c1c(C(=O)NC2CCCC2)cc2c(=O)n3ccccc3nc2n1CC1CCCO1 (stereo not given)
EC50 (Kallikrein-7): 26.8 µM (inactive)

C#CCn1cc(/C=C2\NC(=O)NC2=O)c2ccccc21
IC50 [18]: 1.31 µM (active)
